Positions count from the first letter of the chain named. Like-named read-outs stand apart in the source and are kept apart here.
Tests used:
[1] = target: T1, IDH2 R140Q (Homo sapiens, UniProt P48735, R140Q); assay: Inhibition of 2-HG production in IDH2 mutant U-87 MG cells; type: cell-based
T1 construct: expressed in transfected cells; host or cells: U-87 MG
T1 sequence (P48735 40-452 R140Q): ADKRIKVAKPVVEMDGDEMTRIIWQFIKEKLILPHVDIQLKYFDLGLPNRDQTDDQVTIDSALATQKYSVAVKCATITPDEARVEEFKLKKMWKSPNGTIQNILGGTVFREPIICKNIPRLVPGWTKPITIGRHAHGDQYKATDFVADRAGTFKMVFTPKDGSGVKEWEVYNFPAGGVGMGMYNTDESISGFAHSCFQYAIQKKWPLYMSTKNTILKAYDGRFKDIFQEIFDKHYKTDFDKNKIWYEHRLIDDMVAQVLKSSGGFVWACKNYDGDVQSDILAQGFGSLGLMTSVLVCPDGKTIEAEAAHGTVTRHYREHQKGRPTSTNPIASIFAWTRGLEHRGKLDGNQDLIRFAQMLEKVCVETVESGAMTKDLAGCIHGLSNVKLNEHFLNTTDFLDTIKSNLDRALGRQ

[2] = target: T2, IDH2 R140Q_I319M cis (Homo sapiens, UniProt P48735, I319M/R140Q); assay: as above; type: cell-based
T2 construct: expressed in transfected cells; host or cells: U-87 MG
T2 sequence (P48735 40-452 R140Q/I319M): T1 sequence (P48735 40-452 R140Q) with I280M

[3] = 16 hours incubation, 50K cells/well, 100 μl media/well, read-out: Relative IC50 (nM) Mean, inhibition of 2-HG production
[4] = 72 hours incubation, 12.5K cells/well, 150 μl media/well, read-out: IC50, inhibition of 2-HG production

- IC50 [1, 3]: 223 nM
- IC50 [1, 4]: 28.4 nM
- IC50 [2, 3]: 29 nM
- IC50 [2, 4]: 30.4 nM
SMILES: C=CC(=O)N1CCN([C@@H](CC2CC2)c2ccc([C@H](C)Nc3ncc4c(n3)N(CC)C(=O)OC4)cc2)CC1 [Compound A, 7-[[(1S)-1-[4-[(1S)-2-cyclopropyl-1-(4-prop-2-enoylpiperazin-1-yl)ethyl]phenyl]ethyl]amino]-1-ethyl-4H-pyrimido[4,5-d][1,3]oxazin-2-one]

Source: patent US20240261294A1, “METHOD FOR TREATING IDH INHIBITOR-RESISTANT SUBJECTS” (Eli Lilly and Company, priority 2021, published 2024)
